Data taken from paper PMC6959545 (European journal of medicinal chemistry, 2013).
Blank lines part the entries; values can stand above or below the compound they belong to.

Key:
human TRPV1 [1] = biological target: T1, human TRPV1 (Homo sapiens, UniProt Q8NER1); test: hTRPV1 antagonism of capsaicin; format: cell-based; settings: for fold less potent than 11, CAP antagonism: compared with 2-butoxy derivative 11; for fold less potent than 12, CAP antagonism: compared with 2-pentyloxy derivative 12
T1 sequence (Q8NER1 whole entry): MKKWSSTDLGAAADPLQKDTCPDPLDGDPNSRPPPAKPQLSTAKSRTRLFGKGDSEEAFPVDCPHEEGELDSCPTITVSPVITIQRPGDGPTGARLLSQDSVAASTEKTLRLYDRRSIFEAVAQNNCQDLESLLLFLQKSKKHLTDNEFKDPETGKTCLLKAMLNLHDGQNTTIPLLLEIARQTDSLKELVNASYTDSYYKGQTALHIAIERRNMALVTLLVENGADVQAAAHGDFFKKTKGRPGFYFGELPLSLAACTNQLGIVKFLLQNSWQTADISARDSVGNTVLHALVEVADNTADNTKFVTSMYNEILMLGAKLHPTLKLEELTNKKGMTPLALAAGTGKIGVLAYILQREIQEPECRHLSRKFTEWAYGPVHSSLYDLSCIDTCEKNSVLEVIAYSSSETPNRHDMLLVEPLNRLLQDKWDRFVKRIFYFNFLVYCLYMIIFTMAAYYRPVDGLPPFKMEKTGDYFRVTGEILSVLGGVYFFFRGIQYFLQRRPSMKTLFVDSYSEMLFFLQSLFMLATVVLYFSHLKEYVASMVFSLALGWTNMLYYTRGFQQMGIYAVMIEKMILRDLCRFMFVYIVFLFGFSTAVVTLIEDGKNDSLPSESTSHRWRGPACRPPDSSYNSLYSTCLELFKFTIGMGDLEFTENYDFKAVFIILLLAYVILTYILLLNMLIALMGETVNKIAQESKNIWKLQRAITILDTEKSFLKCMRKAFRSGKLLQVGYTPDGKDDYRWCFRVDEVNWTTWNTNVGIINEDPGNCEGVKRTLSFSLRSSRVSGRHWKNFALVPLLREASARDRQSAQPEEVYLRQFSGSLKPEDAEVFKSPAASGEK

human TRPV1 [2] = biological target: T1, human TRPV1; test: hTRPV1 antagonism of pH activation, FLIPR; format: cell-based; settings: compound 1 vs lead 2
mice (formalin test) = test: formalin test in mice, oral administration; format: in vivo

Compound: C/C=C\COc1nc(C(F)(F)F)ccc1CNC(=O)C(C)c1ccc(NS(C)(=O)=O)c(F)c1 (stereo not shown) [Compound 14, (Z)-N-((2-(But-2-en-1-yloxy)-6-(trifluoromethyl)pyridin-3-yl)methyl)-2-(3-fluoro-4-(methylsulfonamido)phenyl)propanamide]
fold less potent than 11, CAP antagonism (human TRPV1 [1]): ca. 5 fold

Compound: COCCOc1nc(C(F)(F)F)ccc1CNC(=O)C(C)c1ccc(NS(C)(=O)=O)c(F)c1 (stereo not shown) [Compound 16, N-((2-(2-Methoxyethoxy)-6-(trifluoromethyl)pyridin-3-yl)methyl)-2-(3-fluoro-4-(methylsulfonamido)phenyl)propanamide]
fold less potent than 11, CAP antagonism (human TRPV1 [1]): 160 fold

Compound: CC(C)COc1nc(C(F)(F)F)ccc1CNC(=O)C(C)c1ccc(NS(C)(=O)=O)c(F)c1 (stereo not shown) [Compound 22, N-((2-Isobutoxy-6-(trifluoromethyl)pyridin-3-yl)methyl)-2-(3-fluoro-4-(methylsulfonamido)phenyl)propanamide]
analgesic activity in the formalin test (mice (formalin test)): strong analgesic activity

Compound: CC(C(=O)NCc1ccc(C(F)(F)F)nc1OCc1ccccc1)c1ccc(NS(C)(=O)=O)c(F)c1 (stereo not shown) [Compound 53, N-((2-Benzyloxy-6-(trifluoromethyl)pyridin-3-yl)methyl)-(3-fluoro-4-(methylsulfonamido)phenyl)propanamide]
analgesic activity in the formalin test (mice (formalin test)): strong analgesic activity

Further lines, results first:

fold better than precedent lead 2, CAP antagonism (human TRPV1 [1]; compound 1 vs lead 2): 150 fold | fold better than precedent lead 2, pH antagonism (human TRPV1 [2]): 230 fold
Compound: CC1CCN(c2nc(C(F)(F)F)ccc2CNC(=O)C(C)c2ccc(NS(C)(=O)=O)c(F)c2)CC1 (stereo not shown) [Compound 1, reference compound]

fold less potent than 12, CAP antagonism (human TRPV1 [1]): ~1.5 fold
Compound: CC/C=C\COc1nc(C(F)(F)F)ccc1CNC(=O)C(C)c1ccc(NS(C)(=O)=O)c(F)c1 (stereo not shown) [Compound 15, (Z)-N-((2-(Pent-2-en-1-yloxy)-6-(trifluoromethyl)pyridin-3-yl)methyl)-2-(3-fluoro-4-(methylsulfonamido)phenyl)propanamide]

fold less potent than 12, CAP antagonism (human TRPV1 [1]): 70 fold
Compound: CCOCCOc1nc(C(F)(F)F)ccc1CNC(=O)C(C)c1ccc(NS(C)(=O)=O)c(F)c1 (stereo not shown) [Compound 17, N-((2-(2-Ethoxyethoxy)-6-(trifluoromethyl)pyridin-3-yl)methyl)-2-(3-fluoro-4-(methylsulfonamido)phenyl)propanamide]

fold less potent than 12, CAP antagonism (human TRPV1 [1]): 22 fold
Compound: COCCCOc1nc(C(F)(F)F)ccc1CNC(=O)C(C)c1ccc(NS(C)(=O)=O)c(F)c1 (stereo not shown) [Compound 18, N-((2-(3-Methoxypropoxy)-6-(trifluoromethyl)pyridin-3-yl)methyl)-2-(3-fluoro-4-(methylsulfonamido)phenyl)propanamide]

fold less potent than 13, CAP antagonism (human TRPV1 [1]; compared with 2-hexyloxy derivative 13): 20 fold
Compound: CCOCCCOc1nc(C(F)(F)F)ccc1CNC(=O)C(C)c1ccc(NS(C)(=O)=O)c(F)c1 (stereo not shown) [Compound 19, N-((2-(3-Ethoxypropoxy)-6-(trifluoromethyl)pyridin-3-yl)methyl)-2-(3-fluoro-4-(methylsulfonamido)phenyl)propanamide]
